Results: US20080070898A1, “Piperidine Derivative or Pharmaceutically Acceptable Salt Thereof” (priority 2004, published 2008)
Where a name gives a salt, the structure may show the parent alone.

How the values were obtained:
sodium channel = test: [14C] guanidine uptake test (sodium channel inhibition test), veratridine-induced uptake into rat cerebral cortex primary neurons; assay type: cell-based; details: 100 μM veratridine, 25° C., 15 minutes, specific uptake defined by 1 mM mexiletine
Procedure: (Sodium Channel Inhibition Test)
The [^14C] guanidine uptake test was conducted by modifying the method of Bonisch et al. (British Journal of Pharmacology 108, 436-442, 1993). The [^14C] guanidine was used as a sodium tracer, and the inhibitory activity on uptake of [^14C] guanidine induced by veratridine as a sodium channel activator into rat cerebral cortex primary neurons was measured.
a. Preparation of Rat Cerebral Cortex Primary Neuron Culture System.
A pregnant rat (Wistar, female, pregnancy=19 days old) was anesthetized with diethyl ether and killed by bleeding with the cutting of the carotid artery. Fetuses were excised from the pregnant rat and sterilized with ethanol for disinfection. Then, from the fetuses was dissociated the cerebral cortex. The cerebral cortex was digested with papain and dispersed in a culture medium. Then, the dissociated neurons were placed in a 96-well white plate coated with a poly-L-lysine, at a density of […], and cultured for 2 days in a CO2 incubator (37° C., 5% CO2)
b. Evaluation of Test Compounds
Each well was washed once with an assay buffer (135 mM choline Cl, 5 mM KCl, 1 mM MgSO4, 5.5 mM glucose, 1 mg/mL BSA, 10 mM Hepes-Tris, pH 7.4). The assay buffer was added to each well and incubated at 25° C. for 10 minutes. Then, the assay buffer was replaced by a reaction solution (test compound, [^14C] guanidine and 100 μM veratridine) and incubated at 25° C. for 15 minutes. The reaction was terminated by three times washing with a cold-washing buffer (135 mM NaCl, 5 mM KCl, 1 mM MgSO4, 10 mM Hepes-Tris, pH 7.4). To each well was added 17 μL of 0.1 N NaOH; stirring was made; then, 100 μL of a scintillator was added; and the radioactivity of each well was measured using a liquid scintillator counter. In each test, the uptake amount of [^14C] guanidine inhibited by 1 mM of mexiletine was taken as the portion of the specific uptake via sodium channel. The activity of test compound on sodium channel is expressed by 50% inhibitory concentration (IC50) for the specific uptake.

[1] = system: streptozotocin (STZ)-induced diabetic mice; test: Analgesic action on diabetic neuropathy in streptozotocin-induced diabetic mice (tail pinch test); assay type: in vivo; details: orally 30 mg/kg, 45 minutes prior to measurement, Day 15 after STZ injection, ICR mice
Procedure: (Analgesic Action on Diabetic Neuropathy in Streptozotocin-Induced Diabetic Mice)
Representative compounds of Compound (I) of the present invention were assessed for the analgesic action on diabetic neuropathy in streptozotocin (STZ)-induced diabetic mice to confirm the effect on neuropathic pain. The assessment was performed by the method of Kamei et al. (Pharmacology Biochemistry & Behavior 39, 541-544, 1991) with some modifications.
Male ICR mice of 4 weeks old were intraperitoneally injected with 200 mg/kg weight of STZ to prepare mice with diabetic neuropathy. The analgesic action was assessed by the tail pinch test. […] On Day 14 following the STZ injection, a pretest was carried out to determine the response latency before the administration of a test compound. Only the animals showing not longer than 3 seconds of the response latency in the pretest were used for the test compound assessment on the following day (Day 15 after STZ injection). In the test compound assessment, the response latency after the administration of a test compound was measured. The test compound was orally administered at a dose of 30 mg/kg, 45 minutes prior to the response latency measurement. The analgesic action of a test compound is expressed as prolongation of latency (in seconds) calculated by the formula: (response latency after administration of a test compound)−(response latency before administration of a test compound).

[2] = system: L5/L6 spinal nerve ligation rats; test: animal or person; details: Rattus norvegicus, po, read-out: ED50 (anti-allodynia action potency)
Procedure: (Anti-Allodynia Effect in Rats with L5/L6 Spinal Nerve Ligation)
The assessment was performed by the method of Kim and Chung (Pain 50, 355-363, 1992) with some modifications. Under pentobarbital anesthesia, male SD rats of 5 or 6 weeks old were given surgery to ligate both the left L5 and L6 lumbar spinal nerves tightly with silk threads. For the assessment of analgesic action, the von Frey hair test was adopted. That is, the animal's hindpaw was picked with hair and the lowest strength of hair for limb withdrawal response was designated as a response threshold (log gram) to mechanical stimulation. […] On the day before the assessment of a test compound, the response threshold before administration of a test compound was measured. The animals were divided into 4 to 5 groups so that differences in the mean values of response thresholds before administration among the groups and variation within groups become small. In the assessment of a test compound, the response threshold after administration of the test compound was measured. The test compound was orally given 30 minutes before measurement of the response threshold. The anti-allodynia action potency of a test compound is expressed as ED50. In the calculation of the ED50, the thresholds of ipsilateral and contralateral paws in the solvent group were designated as 0% and 100%, respectively.

## O=C(CN1CCOCC1)N1CCC(/C=C/c2ccccc2Cl)CC1 [Example 1, 4-(2-{4-[(E)-2-(2-chlorophenyl)vinyl]piperidin-1-yl}-2-oxoethyl)morpholine oxalate]
Sodium channel
  IC50: 27 µM

## Cc1ccccc1/C=C/C1CCN(C(=O)CN2CCOCC2)CC1 [Example 3, 4-(2-{4-[(E)-2-(2-methylphenyl)vinyl]piperidin-1-yl}-2-oxoethyl)morpholine]
[1]
  Increase in latent time (prolongation of latency, tail pinch): 2.3 s

## CC(C)Oc1ccccc1/C=C/C1CCN(C(=O)CN2CCOCC2)CC1 [Example 10]
Sodium channel
  IC50: 16 µM

## CC(C)c1ccc(/C=C/C2CCN(C(=O)CN3CCOCC3)CC2)cc1 [Example 26, 4-(2-{4-[(E)-2-(4-isopropylphenyl)vinyl]piperidin-1-yl}-2-oxoethyl)morpholine]
[1]
  Increase in latent time (prolongation of latency, tail pinch): 2.3 s
Sodium channel
  IC50: 25 µM

## O=C(CN1CCOCC1)N1CCC(/C=C/c2ccc(Cl)cc2)CC1 [Example 40, 4-(2-{4-[(E)-2-(4-chlorophenyl)vinyl]piperidin-1-yl}-2-oxoethyl)morpholine]
[1]
  Increase in latent time (prolongation of latency, tail pinch): 3.4 s
Sodium channel
  IC50: 23 µM

## O=C(CN1CCOCC1)N1CCC(/C=C\c2ccc(Cl)cc2)CC1 [Example 52]
Sodium channel
  IC50: 24 µM

## O=C(CN1CCCOCC1)N1CCC(/C=C/c2ccc(Cl)cc2)CC1 [Example 65]
Sodium channel
  IC50: 12 µM

## O=C(CN1CCNCC1)N1CCC(/C=C/c2cccc(Cl)c2)CC1 [Example 68, 1-(2-{4-[(E)-2-(3-chlorophenyl)vinyl]piperidin-1-yl}-2-oxoethyl)piperazine di-hydrochloride]
Sodium channel
  IC50: 25 µM

## O=C(C1CCCN1)N1CCC(/C=C/c2ccc(Cl)cc2)CC1 (centres unmarked) [Example 74]
Sodium channel
  IC50: 13 µM

## O=C(CNC1CCCCC1)N1CCC(/C=C/c2ccc(Cl)cc2)CC1 [Example 76, N-2-{4-[(E)-2-(4-chlorophenyl)vinyl]piperidin-1-yl}-2-oxoethyl)cyclohexaneamine oxalate]
[1]
  Increase in latent time (prolongation of latency, tail pinch): 3.2 s
Sodium channel
  IC50: 3.4 µM

## CN(CC(=O)N1CCC(/C=C/c2ccc(Cl)cc2)CC1)C1CCCCC1 [Example 78, N-2-{4-[(E)-2-(4-chlorophenyl)vinyl]piperidin-1-yl}-2-oxoethyl)-N-methylcyclohexaneamine oxalate]
[1]
  Increase in latent time (prolongation of latency, tail pinch): 2.4 s
Sodium channel
  IC50: 3.1 µM

## Cc1cccc(C)c1OCC(C)N (centres unmarked) [mexiletine, reference compound]
[2]
  ED50: ~70 mg/kg
Sodium channel
  IC50: ~70 µM
